The record followed here is patent US4593092A, “Class of spiro-linked pyrrolidine-2,5-diones” (Kyorin Pharmaceutical Co., Ltd., priority 1983, dated 1986).

Read-outs that look alike come from different tables or passages of the source.

Data set [1] concerns the target T1, aldose reductase (Rattus norvegicus, UniProt P07943).
T1 construct: partially purified enzyme from rat lens; from tissue; host or cells: rat lens
The data set can be described thus: Inhibitory activity on aldose reductase in vitro. The format is biochemical. Conditions: partially purified enzyme from rat lens. From the text:
(§1) Aldose reductase preparation used in this test was partially purified enzyme from rat lens.

Data set [2] has as its target T1, aldose reductase. The data set can be described thus: Inhibitory activity on aldose reductase in vivo (serum of orally dosed rats added to the aldose reductase assay). Conditions: oral, 0.5 ml added to assay. How it is done:
as §1
In order to estimate whether the compounds are available for inhibiting the enzyme in vivo, following preliminary test was carried out.
2 and 5 hours later, blood samples were taken from the rats. A 0.5 ml of serum, instead of the compound, was added to the assay system described in Experiment 1.

The test system of data set [3] is pentylenetetrazole convulsion. Description: Anti-convulsion test (pentylenetetrazole convulsion). The format is in vivo. Conditions: ICR mice; Example 2 orally at 50, 200, 500 and 800 mg/kg; pentylenetetrazole 100 mg/kg i.p. 2 hours later. The method, then:
Mice (ICR stain) were administered orally with the compound of Example 2 at various doses of 50, 200, 500 and 800 mg/kg and injected with pentylenetetrazole at a dose of 100 mg/kg intraperitoneally 2 hours later.

A short description of data set [4]: Acute toxicity on mice, oral. Conditions: mouse, in vivo. How it is done: Acute toxicity was tested by oral administration with the compounds of this invention in fasted mice (ICR stain).
Setting [5] is: serum taken 2 hr after administration, read-out: Inhibition % on aldose reductase in vivo, 2 hr after administration.
Where [6] appears, read: serum taken 5 hr after administration, read-out: Inhibition % on aldose reductase in vivo, 5 hr after administration.

In turn, `O=C1CC2(C(=O)N1)C(=O)N1CCCc3cccc2c31` (stereo not shown) [Example 1, 5',6'-Dihydrospiro[pyrrolidine-3,1'-[4H]pyrrolo[3,2,1-ij]quinoline]-2,2',5(1'H)-trione] registered a half-inhibitory concentration (IC50) on aldose reductase [1] of 6000 nM. Further, the inhibition at 25 mg/kg is 61.2% on aldose reductase [2] (setting [5]) and 49.8% at aldose reductase [2] (setting [6]).
Consider `O=C1CC2(C(=O)N1)C(=O)N1CCCc3cc(Cl)cc2c31` (stereo not shown) [Example 2, 8'-Chloro-5',6'-dihydrospiro[pyrrolidine-3,1'-[4H]pyrrolo[3,2,1-ij]quinoline]-2,2',5(1'H)-trione], for which, on aldose reductase [1], it took 400 nM to reach half-maximal inhibition (IC50). Further, the inhibition at 25 mg/kg on aldose reductase [2] (setting [5]) was 71.7%; on aldose reductase [2] (setting [6]), 68.5%. For the same molecule, the “anti-convulsion activity (suppressive effect on pentylenetetrazole convulsion)” value (shortened to “anti-convulsion activity”) in data set [3] is “did not show any suppressive effect”.
Molecule `CC1CCc2cccc3c2N1C(=O)C31CC(=O)NC1=O` (stereo not shown) [Example 3] showed an IC50 against aldose reductase [1] of 9000 nM. The results for the inhibition at 25 mg/kg on aldose reductase [2] (setting [5]) and on aldose reductase [2] (setting [6]) were 53.3% and 42.6%, respectively.
Molecule `CC1CCc2cc(Cl)cc3c2N1C(=O)C31CC(=O)NC1=O` (stereo not shown) [Example 4] had an IC50 on aldose reductase [1] of 350 nM. In addition, the inhibition at 25 mg/kg was 71.5% at aldose reductase [2] (setting [5]) and 70.2% on aldose reductase [2] (setting [6]).
As to `O=C1CC2(C(=O)N1)C(=O)N1CCOc3cccc2c31` (stereo not shown) [Example 5], on aldose reductase [1], the IC50 is 5000 nM. Besides, the inhibition at 25 mg/kg at aldose reductase [2] (setting [5]) is 52.3%; on aldose reductase [2] (setting [6]), 47.6%.
The molecule `O=C1CC2(C(=O)N1)C(=O)N1c3ccccc3Sc3cccc2c31` (stereo not shown) [Example 6, Spiro[pyrrolidine-3,2'-pyrrolo[3,2,1-kl]phenothiazine]-1',2,5(2'H)-trione] registered an IC50 on aldose reductase [1] of 350 nM. Also, the values for the inhibition at 25 mg/kg at aldose reductase [2] (setting [5]) and at aldose reductase [2] (setting [6]) were 11.8% and 13.4%, respectively. In data set [4] (oral, fasted ICR mice), this molecule gave a 50% lethal dose (LD50) greater than 2000 mg/kg.
`Cc1cc2c3c(c1)C1(CC(=O)NC1=O)C(=O)N3CCC2` (stereo not shown) [Example 7, 5',6'-Dihydro-8'-methylspiro[pyrrolidine-3,1'-[4H]pyrrolo[3,2,1-ij]quinoline]-2,2',5(1'H)-trione]: on aldose reductase [1], the half-maximal inhibitory concentration (IC50) is 2000 nM. In addition, the figures for the inhibition at 25 mg/kg at aldose reductase [2] (setting [5]) and at aldose reductase [2] (setting [6]) were 48.4% and 33.8%, respectively.
On to `O=C1CC2(C(=O)N1)C(=O)N1CCOc3cc(Cl)cc2c31` (stereo not shown) [Example 8, 8'-Chloro-2',3'-dihydrospiro[pyrrolidine-3,6'-pyrrolo[1,2,3-de][1,4]benzoxazine]-2,5,5'(6'H9-trione], for which the half-maximal inhibitory concentration (IC50) against aldose reductase [1] is 600 nM. For the same molecule, the inhibition at 25 mg/kg on aldose reductase [2] (setting [5]) amounted to 62.5%; at aldose reductase [2] (setting [6]) it was 61.4%. In addition, the LD50 in data set [4] (po) is greater than 2000 mg/kg.
On aldose reductase [1], `O=C1CC2(C(=O)N1)C(=O)N1CCSc3cccc2c31` (stereo not shown) [Example 11] yielded an IC50 of 2000 nM. The inhibition at 25 mg/kg was determined as 72.3% on aldose reductase [2] (setting [5]) and 71.3% on aldose reductase [2] (setting [6]).
With `O=C1CC2(C(=O)N1)C(=O)N1CCOc3c(Cl)ccc2c31` (stereo not shown) [Example 12], the midpoint of inhibition against aldose reductase [1], the IC50, lay at 1500 nM. The inhibition at 25 mg/kg at aldose reductase [2] (setting [5]) turned out to be 72.3%; on aldose reductase [2] (setting [6]), 73.9%. The molecule also displayed an LD50 in data set [4] (po) greater than 2000 mg/kg.
The corresponding values for `O=C1CC2(C(=O)N1)C(=O)N1CCOc3c(Cl)c(Cl)cc2c31` (stereo not shown) [Example 13] are 200 nM, 78.2%, 81.2% and greater than 2000 mg/kg.
The corresponding values for `O=C1CC2(C(=O)N1)C(=O)N1CCOc3cc(F)cc2c31` (stereo not shown) [Example 14] are 700 nM, 75.1%, 75.8% and greater than 1000 mg/kg.
`O=C1CC2(C(=O)N1)C(=O)N1CCOc3c(F)c(F)cc2c31` (stereo not shown) [Example 15]: the half-maximal inhibitory concentration (IC50) at aldose reductase [1] is 700 nM. For the same molecule, the figures for the inhibition at 25 mg/kg at aldose reductase [2] (setting [5]) and at aldose reductase [2] (setting [6]) were 74.9% and 75.2%, respectively.
On to `Cc1cc2c3c(c1)C1(CC(=O)NC1=O)C(=O)N3CCO2` (stereo not shown) [Example 16], for which the IC50 against aldose reductase [1] stood at 2500 nM. Further, the LD50 in data set [4] (po) is greater than 2000 mg/kg.
In turn, `COc1cc2c3c(c1)C1(CC(=O)NC1=O)C(=O)N3CCO2` (stereo not shown) [Example 17] had an IC50 against aldose reductase [1] of 35000 nM. This counts as double-digit micromolar.
Turning to `O=C1NC(=O)[C@@]2(CCOc3ccc(F)cc32)N1` [Sorbinil, (4S)2,3-dihydro-6-fluorospiro[4H--1benzopyran-4,4 imidazolidine2',5dione, reference compound], the inhibition at 25 mg/kg at aldose reductase [2] (setting [5]) is 79.8%; at aldose reductase [2] (setting [6]) it was 79.5%. In addition, the “anti-convulsion activity” value in data set [3] is “dose-dependent protection against the tonic convulsion”.
For the molecule `O=C1NC(=O)C(c2ccccc2)(c2ccccc2)N1` [phenytoin], in data set [3], the “anti-convulsion activity” value was “dose-dependent protection against the tonic convulsion”.
